Reference: patent publication US20200046837A1, “UROGENITAL MEDICAL DEVICE FORMULATION BASED ON SUITABLE BIOCHEMICAL COMPOSITIONS FOR THE STABILIZATION OF THE ACIDITY AND THE REDOX STATE OF THE VAGINAL FLUID” (PROBIOSWISS AG, priority 2016, published 2020)
Where two headings read alike, the source gives them in different places.

Assays:
[1] = tested on: Gram-positive bacteria such as Lactobacilli; conditions: cited from earlier work
[2] = Redox potential and pH of media formulation before and after addition of test compounds; conditions: M17-type medium
Procedure: After measurement of redox potential and pH several compounds (nitrogen and sulphur sources) were added to this medium and their effect on pH and redox potential was determined.
Redox values were read after the signal was stable for at least 30 seconds. In addition the pH was measured using a standard pH Electrode connected to a MP225 pH Meter (Mettler Toledo).

Saccharomyces cerevisiae = conditions: cited from earlier work
S. aureus = conditions: cited from earlier work
[3] = tested on: Lactobacillus crispatus KS 119.4; conditions: for OD: OD at 590 nm;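 on all read-outs here: growth in MRS broth cultures, followed via optical density and pH at the start, after 6 h and after 24 h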
K. pneumoniae = conditions: cited from earlier work
[4] = tested on: tested lactobacilli (gasseri, crispatus and jensenii)
E. coli = conditions: cited from earlier work
[5] = tested on: Lactobacillus jensenii KS 119.1; conditions: for OD: OD at 590 nm
Procedure: (§1) Growth was determined by measurement of optical density and pH at start, after 6 hours and after 24 hours.
(§2) All cultures were re-activated from cryopreserved (−80° C.) working stocks by cultivation on MRS agar for 1 to 3 days. A single colony from these plates was used to inoculate 5 ml of MRS broth. After incubation overnight, 10^7 cfu/ml were used to carry out the experiments.

[6] = tested on: Lactobacillus gasseri KS 120.1; conditions: for OD: OD at 590 nm
Procedure: as §1, §2

Aspergillus niger = conditions: cited from earlier work
Penicillium notatum = conditions: cited from earlier work
bacterial vaginosis = conditions: women with a negative redox potential; cited from earlier work

Question: With `Clc1ccccc1C(c1ccccc1)(c1ccccc1)n1ccnc1` [Clotrimazole] as the compound, how does the “activity against Gram-positive bacteria” value [1] read?
Answer: bactericidal activity

Question: With `N[C@@H](CS)C(=O)O` [Cysteine] as the compound, how does the “redox potential (Eh) of the medium after addition of the compound” value (from here on “redox potential (Eh) of the medium”) [2] read?
Answer: −103 mV

Question: Which “effect of the added compound on the redox potential” value [2] does the source give for `N[C@@H](CSSC[C@H](N)C(=O)O)C(=O)O` [Cystine] here?
Answer: high positive redox potential

Question: With `CS(C)(=O)=O` [MSM, dimethylsulfone] as the compound, how does the “effect of the added compound on the redox potential” value [2] read?
Answer: high positive redox potential

Question: Which “microbiostatic concentration for the inhibition of growth” value (Saccharomyces cerevisiae) does the source give for `C/C=C/C=C/C(=O)[O-].[K+]` [Potassium Sorbate, potassium sorbate] here?
Answer: 50 to 100 µg/mL

Question: What about the “microbiostatic concentration for the inhibition of growth” value (S. aureus) of the same compound?
Answer: 50 to 100 µg/mL

Question: What about the Interpretation ([3]; potassium sorbate 0.01%) of the same compound?
Answer: 0

Question: And the pH ([3]; potassium sorbate 0.01%, 0 h)?
Answer: 4.71

Question: And the OD ([3]; potassium sorbate 0.01%, 0 h)?
Answer: 0.7

Question: What about the pH ([3]; potassium sorbate 0.01%, 6 h) of the same compound?
Answer: 4.42

Question: And the OD ([3]; potassium sorbate 0.01%, 6 h)?
Answer: 1.36

Question: And the pH ([3]; potassium sorbate 0.01%, 24 h)?
Answer: 4.35

Question: And the OD ([3]; potassium sorbate 0.01%, 24 h)?
Answer: 1.47

Question: What about the Interpretation ([3]; potassium sorbate 0.05%) of the same compound?
Answer: 0

Question: What about the pH ([3]; potassium sorbate 0.05%, 0 h) of the same compound?
Answer: 4.69

Question: What about the OD ([3]; potassium sorbate 0.05%, 0 h) of the same compound?
Answer: 0.6

Question: And the pH ([3]; potassium sorbate 0.05%, 6 h)?
Answer: 4.43

Question: And the OD ([3]; potassium sorbate 0.05%, 6 h)?
Answer: 1.16

Question: What about the pH ([3]; potassium sorbate 0.05%, 24 h) of the same compound?
Answer: 4.32

Question: What about the OD ([3]; potassium sorbate 0.05%, 24 h) of the same compound?
Answer: 1.24

Question: What about the Interpretation ([3]; potassium sorbate 0.10%) of the same compound?
Answer: 0

Question: And the pH ([3]; potassium sorbate 0.10%, 0 h)?
Answer: 4.7

Question: What about the OD ([3]; potassium sorbate 0.10%, 0 h) of the same compound?
Answer: 0.68

Question: And the pH ([3]; potassium sorbate 0.10%, 6 h)?
Answer: 4.48

Question: What about the OD ([3]; potassium sorbate 0.10%, 6 h) of the same compound?
Answer: 1.34

Question: And the pH ([3]; potassium sorbate 0.10%, 24 h)?
Answer: 4.44

Question: And the OD ([3]; potassium sorbate 0.10%, 24 h)?
Answer: 1.24

Question: And the Interpretation ([3]; potassium sorbate 0.50%)?
Answer: 0

Question: What about the pH ([3]; potassium sorbate 0.50%, 0 h) of the same compound?
Answer: 4.97

Question: What about the OD ([3]; potassium sorbate 0.50%, 0 h) of the same compound?
Answer: 0.67

Question: What about the pH ([3]; potassium sorbate 0.50%, 6 h) of the same compound?
Answer: 4.73

Question: And the OD ([3]; potassium sorbate 0.50%, 6 h)?
Answer: 1.24

Question: And the pH ([3]; potassium sorbate 0.50%, 24 h)?
Answer: 4.77

Question: What about the OD ([3]; potassium sorbate 0.50%, 24 h) of the same compound?
Answer: 1.15

Question: And the Interpretation ([3]; potassium sorbate 1.00%)?
Answer: 1

Question: What about the pH ([3]; potassium sorbate 1.00%, 0 h) of the same compound?
Answer: 5.8

Question: What about the OD ([3]; potassium sorbate 1.00%, 0 h) of the same compound?
Answer: 0.65

Question: And the pH ([3]; potassium sorbate 1.00%, 6 h)?
Answer: 5.01

Question: What about the OD ([3]; potassium sorbate 1.00%, 6 h) of the same compound?
Answer: 1.13

Question: What about the pH ([3]; potassium sorbate 1.00%, 24 h) of the same compound?
Answer: 5.08

Question: And the OD ([3]; potassium sorbate 1.00%, 24 h)?
Answer: 0.96

Question: What about the Interpretation ([3]; potassium sorbate […]) of the same compound?
Answer: 1

Question: And the pH ([3]; potassium sorbate […], 0 h)?
Answer: 5.32

Question: And the OD ([3]; potassium sorbate […], 0 h)?
Answer: 0.64

Question: And the pH ([3]; potassium sorbate […], 6 h)?
Answer: 5.2

Question: And the OD ([3]; potassium sorbate […], 6 h)?
Answer: 0.99

Question: What about the pH ([3]; potassium sorbate […], 24 h) of the same compound?
Answer: 5.26

Question: And the OD ([3]; potassium sorbate […], 24 h)?
Answer: 0.76

Question: And the “microbiostatic concentration for the inhibition of growth” value (K. pneumoniae)?
Answer: 50 to 100 µg/mL

Question: And the “concentration required for a slight inhibition” value [4]?
Answer: ≥ 0.5%

Question: What about the “microbiostatic concentration for the inhibition of growth” value (E. coli) of the same compound?
Answer: 50 to 100 µg/mL

Question: And the Interpretation ([5]; potassium sorbate 0.10%)?
Answer: 0

Question: What about the pH ([5]; potassium sorbate 0.10%, 0 h) of the same compound?
Answer: 4.5

Question: And the OD ([5]; potassium sorbate 0.10%, 0 h)?
Answer: 0.08

Question: What about the pH ([5]; potassium sorbate 0.10%, 6 h) of the same compound?
Answer: 4.5

Question: What about the OD ([5]; potassium sorbate 0.10%, 6 h) of the same compound?
Answer: 0.23

Question: And the pH ([5]; potassium sorbate 0.10%, 24 h)?
Answer: 4.5

Question: What about the OD ([5]; potassium sorbate 0.10%, 24 h) of the same compound?
Answer: 0.44

Question: What about the Interpretation ([5]; potassium sorbate 0.50%) of the same compound?
Answer: 1

Question: And the pH ([5]; potassium sorbate 0.50%, 0 h)?
Answer: 4.5

Question: What about the OD ([5]; potassium sorbate 0.50%, 0 h) of the same compound?
Answer: 0.07

Question: And the pH ([5]; potassium sorbate 0.50%, 6 h)?
Answer: 4.5

Question: And the OD ([5]; potassium sorbate 0.50%, 6 h)?
Answer: 0.11

Question: What about the pH ([5]; potassium sorbate 0.50%, 24 h) of the same compound?
Answer: 4.85

Question: And the OD ([5]; potassium sorbate 0.50%, 24 h)?
Answer: 0.124

Question: What about the Interpretation ([5]; potassium sorbate 1.00%) of the same compound?
Answer: 2

Question: And the pH ([5]; potassium sorbate 1.00%, 0 h)?
Answer: 5.03

Question: And the OD ([5]; potassium sorbate 1.00%, 0 h)?
Answer: 0.18

Question: And the pH ([5]; potassium sorbate 1.00%, 6 h)?
Answer: 5.01

Question: And the OD ([5]; potassium sorbate 1.00%, 6 h)?
Answer: 0.26

Question: What about the pH ([5]; potassium sorbate 1.00%, 24 h) of the same compound?
Answer: 5.09

Question: What about the OD ([5]; potassium sorbate 1.00%, 24 h) of the same compound?
Answer: 0.16

Question: What about the Interpretation ([5]; potassium sorbate […]) of the same compound?
Answer: 2

Question: And the pH ([5]; potassium sorbate […], 0 h)?
Answer: 5.32

Question: What about the OD ([5]; potassium sorbate […], 0 h) of the same compound?
Answer: 0.17

Question: What about the pH ([5]; potassium sorbate […], 6 h) of the same compound?
Answer: 5.18

Question: And the OD ([5]; potassium sorbate […], 6 h)?
Answer: 0.24

Question: What about the pH ([5]; potassium sorbate […], 24 h) of the same compound?
Answer: 5.25

Question: And the OD ([5]; potassium sorbate […], 24 h)?
Answer: 0.13

Question: What about the Interpretation ([6]; potassium sorbate 1.00%) of the same compound?
Answer: 1

Question: What about the pH ([6]; potassium sorbate 1.00%, 0 h) of the same compound?
Answer: 5.16

Question: And the OD ([6]; potassium sorbate 1.00%, 0 h)?
Answer: 0.54

Question: What about the pH ([6]; potassium sorbate 1.00%, 6 h) of the same compound?
Answer: 5

Question: And the OD ([6]; potassium sorbate 1.00%, 6 h)?
Answer: 0.78

Question: And the pH ([6]; potassium sorbate 1.00%, 24 h)?
Answer: 5.07

Question: And the OD ([6]; potassium sorbate 1.00%, 24 h)?
Answer: 0.97

Question: And the Interpretation ([6]; potassium sorbate […])?
Answer: 1

Question: And the pH ([6]; potassium sorbate […], 0 h)?
Answer: 5.31

Question: And the OD ([6]; potassium sorbate […], 0 h)?
Answer: 0.53

Question: What about the pH ([6]; potassium sorbate […], 6 h) of the same compound?
Answer: 5.26

Question: And the OD ([6]; potassium sorbate […], 6 h)?
Answer: 0.73

Question: What about the pH ([6]; potassium sorbate […], 24 h) of the same compound?
Answer: 5.26

Question: And the OD ([6]; potassium sorbate […], 24 h)?
Answer: 0.72

Question: And the “microbiostatic concentration for the inhibition of growth” value (Aspergillus niger)?
Answer: 200 to 500 µg/mL

Question: And the “microbiostatic concentration for the inhibition of growth” value (Penicillium notatum)?
Answer: 200 to 500 µg/mL

Question: For `N[C@@H](CCC(=O)O)C(=O)O` [glutamic acid, L-Glutamic acid], which “redox potential (Eh) of the medium” value [2] is on record?
Answer: ~300 mV

Question: Which “vaginal redox potential after a successful cure” value (bacterial vaginosis) does the source give for `Cc1ncc([N+](=O)[O-])n1CCO` [metronidazole] here?
Answer: returned to a positive one

Question: With `O=S(O)(O)=S` [thiosulfate, Na-Thiosulfate] as the compound, how does the “redox potential (Eh) of the medium” value [2] read?
Answer: −36 mV
